Assay results as given in ChEMBL document CHEMBL1201862, “PubChem BioAssay data set” (2004).
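Dose response: 5 concentrations. Exposure: 48 h. Format: 96-well plates. Endpoint: linear interpolation; highest concentration if not reached. GI50 = concentration required for 50% inhibition of growth.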 Calls of active or inactive are those of the source. No stated cut-off is given here; in the data, active = GI50 up to about 1.1 µM and inactive = higher.

Key:
Assay in all cases: NCI tumour cell line growth inhibition, 48 h
[1] = tested on: NCI-H522
[2] = tested on: UACC-257
[3] = tested on: SF-295
[4] = tested on: HT-29
[5] = tested on: TK-10
[6] = tested on: OVCAR-3
[7] = tested on: OVCAR-8
[8] = tested on: SK-MEL-5
[9] = tested on: HL-60
[10] = tested on: SF-268
[11] = tested on: NCI-H460
[12] = tested on: ACHN
[13] = tested on: SNB-19
[14] = tested on: IGROV-1
[15] = tested on: CCRF-CEM
[16] = tested on: HCC 2998

Measured: GI50

O=C(NN1C(=O)C(Cl)C1c1ccc(O)cc1)c1ccccc1O (stereo unspecified)
inactive: [1] 18.1 µM | [2] 20.7 µM | [3] 16.6 µM | [4] 18.4 µM | [5] 24.7 µM | [6] 16.7 µM | [7] 13.5 µM | [8] 14.6 µM | [9] 25.2 µM | [10] 18.8 µM | [11] 17.5 µM | [12] 19.1 µM | [13] 23 µM | [14] 14 µM | [15] 7.11 µM

CCc1cccc(C(C)C)c1C1C(=O)C(=O)N(c2nc3ccccc3s2)C(=O)C1=O
inactive: [2] > 100 µM | [3] > 100 µM | [4] > 100 µM | [5] > 100 µM | [6] > 100 µM | [8] > 100 µM | [9] > 100 µM | [16] > 100 µM | [10] > 100 µM | [11] > 100 µM | [12] > 100 µM | [13] 71.9 µM | [14] > 100 µM | [15] > 100 µM

Cc1ccc(NC(=O)C(=O)C(C#N)c2ccccc2C)cc1C (stereo unspecified)
inactive: [1] > 92.5 µM | [2] > 100 µM | [3] > 100 µM | [4] > 100 µM | [5] > 100 µM | [6] > 100 µM | [7] > 100 µM | [8] > 100 µM | [9] > 54.1 µM | [16] > 54.3 µM | [10] > 100 µM | [11] > 48.5 µM | [12] > 100 µM | [13] > 100 µM | [14] > 100 µM | [15] > 61.7 µM

Cc1cc(C)[n+]2c(c1)C=CC2.[O-][Cl+3]([O-])([O-])[O-]
inactive: [1] 3.21 µM | [2] 11.5 µM | [3] 25.1 µM | [4] 15.9 µM | [5] 92 µM | [6] 11.7 µM | [7] 28.6 µM | [8] 13.9 µM | [9] 2.94 µM | [16] > 100 µM | [10] 64 µM | [11] 34.8 µM | [12] 17.7 µM | [13] 42.7 µM

COc1ccc(CC#C/C=C/C(=O)NCC(C)C)cc1
inactive: [1] > 100 µM | [2] > 100 µM | [3] > 100 µM | [4] > 100 µM | [5] > 100 µM | [6] > 100 µM | [7] > 100 µM | [8] > 100 µM | [9] 29.5 µM | [16] > 100 µM | [10] > 100 µM | [11] > 100 µM | [12] > 100 µM | [13] > 100 µM | [14] > 100 µM | [15] 74.1 µM

CC(=O)NCc1c(C(N)=O)ncn1Cc1ccccc1
inactive: [2] > 100 µM | [3] > 100 µM | [4] > 100 µM | [5] > 100 µM | [6] > 100 µM | [7] > 100 µM | [8] > 100 µM | [9] > 100 µM | [16] > 100 µM | [11] > 100 µM | [12] > 100 µM | [13] > 100 µM | [14] > 100 µM | [15] > 100 µM

COc1ccc2cc1Oc1ccc(cc1)CC1c3cc4c(cc3CCN1C)Oc1c(OC)cc3c(c1O4)C(C2)N(C)CC3 (stereo unspecified)
inactive: [1] 2.11 µM | [3] 1.98 µM | [4] 1.81 µM | [5] 15.6 µM | [6] 5.81 µM | [7] 2.12 µM | [8] 8.57 µM | [9] 1.96 µM | [16] 3.05 µM | [10] 2.77 µM | [11] 1.76 µM | [12] 4.78 µM | [13] 3.86 µM | [14] > 10 µM | [15] 1.32 µM

O=C(OCc1nc2ccc(Br)cc2c(=O)n1-c1ccccc1)c1ccccc1O
inactive: [1] 38.1 µM | [2] 61.5 µM | [3] > 100 µM | [4] 84.9 µM | [5] > 100 µM | [6] 2.32 µM | [7] > 100 µM | [8] 18.1 µM | [9] 36.7 µM | [16] > 100 µM | [10] 78.9 µM | [11] > 100 µM | [12] 70.5 µM | [14] > 100 µM | [15] 48.3 µM

CC(=O)OC1COC(N2C(=O)C(=O)c3ccccc32)C(OC(C)=O)C1OC(C)=O (stereo unspecified)
inactive: [1] > 100 µM | [2] > 100 µM | [3] > 100 µM | [4] > 100 µM | [5] > 100 µM | [6] > 100 µM | [7] > 100 µM | [8] > 100 µM | [16] > 100 µM | [10] > 100 µM | [11] > 100 µM | [12] > 100 µM | [13] > 100 µM | [14] > 100 µM | [15] > 100 µM

COc1ccc(C(c2c(O)c3ccccc3n(-c3ccccc3)c2=O)c2c(O)c3ccccc3n(-c3ccccc3)c2=O)cc1
inactive: [1] > 100 µM | [5] > 100 µM | [6] > 100 µM | [8] > 100 µM | [16] > 100 µM | [10] > 100 µM | [12] > 100 µM | [13] > 100 µM | [15] > 100 µM

CC(=O)C1=C(C)NC2C=CC=CN12 (stereo unspecified)
inactive: [1] > 100 µM | [2] > 100 µM | [3] > 100 µM | [4] > 100 µM | [5] > 100 µM | [6] > 100 µM | [7] > 100 µM | [8] > 100 µM | [9] > 100 µM | [16] > 100 µM | [10] > 100 µM | [11] > 100 µM | [12] > 100 µM | [13] > 100 µM | [14] > 100 µM | [15] > 100 µM

CCOC(=O)NC(=O)c1cn(CCCOC(=O)CCCCCCCCCCC(=O)OCCCn2cc(C(=O)NC(=O)OCC)c(=O)n(C)c2=O)c(=O)n(C)c1=O
inactive: [1] > 100 µM | [2] > 100 µM | [3] > 100 µM | [4] > 100 µM | [5] > 100 µM | [6] > 100 µM | [7] > 100 µM | [8] > 100 µM | [9] > 100 µM | [16] > 100 µM | [10] > 100 µM | [11] > 100 µM | [12] > 100 µM | [13] > 100 µM | [14] > 100 µM | [15] > 100 µM

O=C1c2ccccc2C(=O)N1C/C=N/NS(=O)(=O)c1ccc2ccccc2c1
inactive: [1] > 100 µM | [2] > 100 µM | [3] > 100 µM | [4] > 100 µM | [5] > 100 µM | [6] > 100 µM | [7] > 100 µM | [8] > 100 µM | [9] > 100 µM | [16] > 100 µM | [11] > 100 µM | [12] > 100 µM | [13] > 100 µM | [14] > 100 µM | [15] > 100 µM

O=c1c2ccccc2oc2nccnc12
inactive: [2] > 100 µM | [3] > 100 µM | [4] > 100 µM | [5] > 100 µM | [6] > 100 µM | [7] > 100 µM | [8] > 100 µM | [16] > 100 µM | [10] > 100 µM | [11] > 100 µM | [12] > 100 µM | [13] > 100 µM | [14] > 100 µM | [15] > 100 µM

COc1cc2c(cc1OC)C(C(CBr)CBr)N(C1CCCC1)CC2 (stereo unspecified)
inactive: [1] > 100 µM | [2] > 100 µM | [3] > 100 µM | [4] > 100 µM | [5] > 100 µM | [6] > 100 µM | [7] > 100 µM | [8] > 100 µM | [9] > 100 µM | [16] > 100 µM | [10] > 100 µM | [11] > 100 µM | [12] > 100 µM | [13] > 100 µM | [14] > 100 µM | [15] > 100 µM

C[N+](C)(C)CC1CCCCC1O (stereo unspecified)
inactive: [1] 63 µM | [2] > 100 µM | [3] > 100 µM | [4] > 100 µM | [5] > 100 µM | [6] > 100 µM | [7] > 100 µM | [8] > 100 µM | [16] > 100 µM | [10] > 100 µM | [11] > 100 µM | [12] > 100 µM | [14] > 100 µM | [15] > 100 µM

CCCC(C)NC1=C(NC(C)=O)C(=O)c2ccccc2C1=O (stereo unspecified)
inactive: [1] 64.7 µM | [2] > 100 µM | [3] > 100 µM | [4] > 100 µM | [5] > 100 µM | [6] > 100 µM | [7] > 100 µM | [8] 73.8 µM | [9] 97.3 µM | [16] > 100 µM | [10] > 100 µM | [11] > 100 µM | [12] > 100 µM | [13] > 100 µM | [14] > 100 µM | [15] > 100 µM

COC(=O)C[S+]([O-])c1ccccc1 (stereo unspecified)
inactive: [1] 13.8 µM | [2] 60.4 µM | [3] 36.6 µM | [4] 36.6 µM | [5] 44 µM | [6] 31.3 µM | [7] 27.5 µM | [8] 25.4 µM | [9] 15.5 µM | [16] 25.3 µM | [10] 14 µM | [11] 59.8 µM | [12] 33.7 µM | [13] 37.8 µM | [14] 19.2 µM | [15] 7.67 µM
